“And” between values parts separate entries of the source, which are not always exact repeats. Identical values can stand only once.
Assay: Pharmacokinetic studies in mice (intravenous and intramuscular, plasma, HPLC-MS/MS)
Format: in vivo, BALB/c mice
Set-up: AUClast / AUCall / AUCINF_obs / AUCINF_pred / AUCINFobs: concentration or dose not given beside the values
Settings: for F / Ka / Kel / T1/2ka / T1/2kel / Tmax / Cmax / AUC0-∞ / Cl / Vd / C0: mice; for AUCINFobs / AUClast / AUClast/AUCINFobs ratio / AUC0-t/AUC0-∞ ratio (AV): non-compartment model; for AUCINFobs / AUClast / AUClast/AUCINFobs ratio: individual mice; for AUC0-t/AUC0-∞ ratio (AV): mean
Experimental: Pharmacokinetic experimental procedures of compound 16C were measured according to previous reports with some modifications ([Wang et al., 2022]). In brief, BALB/c mice were divided into two groups of eight mice each; one group was injected intravenously and the other was injected intramuscularly with compound 16C at a dose of 10 mg/kg. The dose was based on previous studies of novel pleuromutilin derivatives ([Jin et al., 2019]; [Wang et al., 2022]). Meanwhile, the dose of tiamulin approved by the European Union for intramuscular administration is 10–20 mg/kg ([EMA, 1999]). The volume of the injection was 0.1 mL/10 g. The compound 16C formulation was a filtered solution in 5% DMSO, 5% Tween-80, and 90% normal saline. Blood was obtained from eight mice via the ocular venous plexus at 0.083, 0.167, 0.25, 0.334, 0.5, 0.75, 1, 1.5, 2, 3, 4, 6, 8, and 12 h following tail intravenous or thigh Intramuscular injection. A glass capillary with a diameter of 0.3 mm was inserted into the outer canthus of the mouse, and 200 μL blood was collected using a 1.5 mL anticoagulant centrifuge tube. The blood was centrifuged at 3,000 rpm for 10 min to obtain plasma. 100 μL of plasma was aspirated for drug concentration detection, and eight parallel samples from different mice were obtained at each time point.
All pharmacokinetic experimental samples and method validation samples were added with 4 times the volume of acetonitrile and shaken for 1 min, centrifuged at high speed at 13,000× g for 10 min, and the supernatants were taken and filtered to detect the drug concentration. Some samples with high concentrations were diluted to the linear range prior to analysis.
The extracted samples were analyzed using a high-performance liquid chromatography-tandem mass spectrometry (HPLC-MS/MS) system (Agilent, Santa Clara, CA, United States) 1200 HPLC and Applied Biosystems (Waltham, MA, United States) API 4000 mass spectrometer). HPLC-MS/MS analysis using a Zorbax Eclipse XDB-C18 (4.6 × 50 mm, 3.5 μm) column (Agilent). The mobile phase A (acetonitrile) and B (water) were applied as a gradient as follows: 0–3 min: 15%–95% A and maintain from 3 min to 5 min at 95% A. 5–5.1 min: 95%–15% A and maintain from 5.1 to 10 min at 15% A. Flow rate: 500 μL/min; column temperature: 30°C and injection volume: 4 μL. The electrospray ionization (ESI) source of the mass spectrometer was operated in […], with the following ion source parameters: ion spray voltage 4,500 V, collision gas 7 psi, ion source gas 1 55 psi, ion source gas 2 40 psi, curtain gas 20 psi, source temperature 600°C. The precursor ion m/z of Compound 16C was 633.3, and the product ions m/z were 272.0 (quantifier) 286.9 and 313.0. Declustering potentials (DP) were 140, 140, and 144 V, respectively; entrance potential (EP) was 10 V; collision energy (CE) was 55, 46, and 15 V, respectively; and collision cell exit potential (CXP) was 14 V.
[…] Pharmacokinetic parameters include time to maximum concentration (Tmax), maximum concentration (Cmax), the area under the plasma concentration–time curve (AUC0-∞), clearance rate (CL), the apparent volume of distribution (Vd), bioavailability (F), elimination half-life (T1/2kel) and absorption half-life (T1/2ka).

With `C=CC1(C)CC(OC(=O)CSc2ccc(NC(=O)Cc3ccc([N+](=O)[O-])cc3)cc2)C2(C)C(C)CCC3(CCC(=O)C32)C(C)C1O` (stereo not shown) [compound 16C, 22–((4-((4-nitrophenyl)acetamido)phenyl)thio)deoxypleuromutilin] the F (IM 10 mg/kg) was 71.29 ± 19.34%, the Ka (IM 10 mg/kg) was 14.41 ± 7.76 h⁻¹ and the Kel (IM 10 mg/kg) was 0.33 ± 0.07 h⁻¹. The T1/2ka (IM 10 mg/kg) was 3.6 ± 1.8 min, the T1/2kel (IM 10 mg/kg) was 2.20 h and 2.20 ± 0.52 h and the Tmax (IM 10 mg/kg) was 0.24 ± 0.09 h. The Cmax (IM 10 mg/kg, n = 8) was 500 ± 110 ng/mL, the “AUC0-∞” value (IM 10 mg/kg, two-compartmental model) was 1070 ± 230 ng·h/mL and the T1/2ka (IM 10 mg/kg, listed as Compound 16C) was 3.6 min. The AUCINFobs (IM) was 805.258 and 1373.07 and 1092.7 and 1076.67 and 1204.87 and 1450.76 and 1023.1 and 1087.9, the AUClast (IM) was 801.322 and 1354.01 and 1070.85 and 1055.33 and 1188.66 and 1432.45 and 925.896 and 1050.1 and the AUClast/AUCINFobs ratio (IM) was 99.5113% and 98.6117% and 98.0006% and 98.0177% and 98.6551% and 98.7381% and 90.4989% and 96.5252%. The “AUC0-t/AUC0-∞ ratio (AV)” value (IM) was 97.32% and 97.3198%, the Cl (IV 10 mg/kg) was 112 ± 27.8 mL/min/kg and the Kel (IV 10 mg/kg) was 0.41 ± 0.14 h⁻¹. The Vd (IV 10 mg/kg) was 3.55 ± 1.32 L/kg, the C0 (IV 10 mg/kg, n = 8) was 5580 ± 1250 ng/mL and the “AUC0-∞” value (IV 10 mg/kg, two-compartmental model) was 1560 ± 370 ng·h/mL. The T1/2kel (IV 10 mg/kg, 10 mg/kg) was 1.89 h and 1.89 ± 0.61 h, the AUCINFobs (IV) was 1454.8 and 1871.31 and 1501.72 and 1496.6 and 2594.18 and 1752.1 and 2317.09 and 1731 and the AUClast (IV) was 1441.26 and 1869.35 and 1488.47 and 1490.96 and 2574.6 and 1734.84 and 2287.49 and 1712.29. The AUClast/AUCINFobs ratio (IV) was 99.0694% and 99.8954% and 99.1179% and 99.6229% and 99.2455% and 99.0149% and 98.7227% and 98.9189%, the “AUC0-t/AUC0-∞ ratio (AV)” value (IV) was 99.20% and 99.2009% and the “AUC0-∞” value (IM(10mg/kg), n=8) was 1070 ± 230 ng·h/mL. The Cmax (IM(10mg/kg), n=8) was 500 ± 110 ng/mL, the F (IM(10mg/kg), n=8) was 71.29±19.34% and the Ka (IM(10mg/kg), n=8) was 14.41 ± 7.76 h⁻¹. It also gave a Kel (IM(10mg/kg), n=8) of 0.33 ± 0.07 h⁻¹, a T1/2ka (IM(10mg/kg), n=8) of 3.6 ± 1.8 min and a T1/2kel (IM(10mg/kg), n=8) of 2.20 ± 0.52 h. The Tmax (IM(10mg/kg), n=8) was 0.24 ± 0.09 h, the “AUC0-∞” value (IV(10mg/kg), n=8) was 1560 ± 370 ng·h/mL and the C0 (IV(10mg/kg), n=8) was 5580 ± 1250 ng/mL. For the same compound, the Cl (IV(10mg/kg), n=8) was 112 ± 27.8 mL/min/kg, the Kel (IV(10mg/kg), n=8) was 0.41 ± 0.14 h⁻¹ and the T1/2kel (IV(10mg/kg), n=8) was 1.89 ± 0.61 h. For the same compound, the Vd (IV(10mg/kg), n=8) was 3.55 ± 1.32 L/kg.
